# Assay results from patent US20080269241A1, “BICYCLIC AMINOPROPYL TETRAHYDRO-PYRAZOLO-PYRIDINE MODULATORS OF CATHEPSIN S” (priority 2007, published 2008).
# Molecular target: T1, human cathepsin S (CatS) (Homo sapiens, UniProt P25774)
# T1 construct: made in house; host or cells: baculovirus system (insect cells)
# Assay: Recombinant human cathepsin S (CatS) fluorogenic substrate inhibition assay
# Type: biochemical
# Conditions: not given
# Method: Recombinant human cathepsin S (CatS) was expressed in the baculovirus system and purified in one step with a thiopropyl-sepharose column. […] The assay is run in 150 mM sodium acetate pH 5.0 containing 1.5 mM DTT and 150 mM NaCl. […] Measurements are taken every min for 20 min. The rate is calculated from the slope of the increase in fluorescence and the percent inhibition is calculated from this.
# T1 sequence (P25774 115-331): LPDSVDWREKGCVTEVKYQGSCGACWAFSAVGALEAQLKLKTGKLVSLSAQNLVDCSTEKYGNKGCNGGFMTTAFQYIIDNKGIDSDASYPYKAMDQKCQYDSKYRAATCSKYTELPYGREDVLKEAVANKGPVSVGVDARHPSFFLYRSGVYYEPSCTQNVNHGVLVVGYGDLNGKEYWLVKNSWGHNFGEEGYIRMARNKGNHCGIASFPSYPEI
row,SMILES,IC50 [nM]
1,"COc1ccccc1C1CCN(CC(O)Cn2nc(-c3ccc(C(F)(F)F)c(CNC(=O)CC(C)C)c3)c3c2CCN(S(C)(=O)=O)C3)CC1 (stereo not drawn) [Example 259, N-[5-(1-{2-Hydroxy-3-[4-(2-methoxy-phenyl)-piperidin-1-yl]-propyl}-5-methanesulfonyl-4,5,6,7-tetrahydro-1H-pyrazolo[4,3-c]pyridin-3-yl)-2-trifluoromethyl-benzyl]-3-methyl-butyramide]",20

# Same assay, conditions: recombinant human CatS, 10 μM Z-Valine-Valine-Arginine-AMC, pH 5.0; average of results obtained; read-out: CatS IC50
row,SMILES,IC50 [nM]
1,"CS(=O)(=O)N1CCc2c(c(-c3ccc(C(F)(F)F)c(CNC(=O)c4ccc(C(F)(F)F)nc4)c3)nn2CC(O)CN2CCC(N3CCCC3=O)CC2)C1 (stereo not drawn) [Example 54, N-[5-(1-{2-Hydroxy-3-[4-(2-oxo-pyrrolidin-1-yl)-piperidin-1-yl]-propyl}-5-methanesulfonyl-4,5,6,7-tetrahydro-1H-pyrazolo[4,3-c]pyridin-3-yl)-2-trifluoromethyl-benzyl]-6-trifluoromethyl-nicotinamide]",70
2,"CC(C)CCNCc1cc(-c2nn(CCCN3CCC(N4CCCC4=O)CC3)c3c2CN(S(C)(=O)=O)CC3)ccc1C(F)(F)F [Example 47, 1-{1-[3-(5-Methanesulfonyl-3-{3-[(3-methyl-butylamino)-methyl]-4-trifluoromethyl-phenyl}-4,5,6,7-tetrahydro-pyrazolo[4,3-c]pyridin-1-yl)-propyl]-piperidin-4-yl}-pyrrolidin-2-one]",300
3,"CS(=O)(=O)N1CCc2c(c(-c3ccc(Cl)c(CNc4ccccc4)c3)nn2CCCN2CCC(N3CCCC3=O)CC2)C1 [Example 207, 1-(1-{3-[3-(4-Chloro-3-phenylaminomethyl-phenyl)-5-methanesulfonyl-4,5,6,7-tetrahydro-pyrazolo[4,3-c]pyridin-1-yl]-propyl}-piperidin-4-yl)-pyrrolidin-2-one]",2250
4,"CC(C)=CC(=O)NCc1cc(-c2nn(CC(O)CN3CCC(c4cccc(O)c4)CC3)c3c2CN(S(C)(=O)=O)CC3)ccc1C(F)(F)F (stereo not drawn) [Example 275, 3-Methyl-but-2-enoic acid 5-(1-{2-hydroxy-3-[4-(3-hydroxy-phenyl)-piperidin-1-yl]-propyl}-5-methanesulfonyl-4,5,6,7-tetrahydro-1H-pyrazolo[4,3-c]pyridin-3-yl)-2-trifluoromethyl-benzylamide]",10
5,"CC(C)CC(=O)NCc1cc(-c2nn(CC(O)CN3CCC(O)(c4ccccn4)CC3)c3c2CN(S(C)(=O)=O)CC3)ccc1C(F)(F)F (stereo not drawn) [Example 258, N-(5-{1-[2-Hydroxy-3-(4′-hydroxy-3′,4′,5′,6′-tetrahydro-2′H-[2,4′]bipyridinyl-1′-yl)-propyl]-5-methanesulfonyl-4,5,6,7-tetrahydro-1H-pyrazolo[4,3-c]pyridin-3-yl}-2-trifluoromethyl-benzyl)-3-methyl-butyramide]",40
6,"CC(C)c1cccc(NCc2cc(-c3nn(CCCN4CCC(N5CCCC5=O)CC4)c4c3CN(S(C)(=O)=O)CC4)ccc2Cl)c1 [Example 211, 1-{1-[3-(3-{4-Chloro-3-[(3-isopropyl-phenylamino)-methyl]-phenyl}-5-methanesulfonyl-4,5,6,7-tetrahydro-pyrazolo[4,3-c]pyridin-1-yl)-propyl]-piperidin-4-yl}-pyrrolidin-2-one]",370
7,"CS(=O)(=O)N1CCc2c(c(-c3ccc(C(F)(F)F)c(CNC(=O)CN4CCS(=O)(=O)CC4)c3)nn2CCCN2CCC(N3CCCC3=O)CC2)C1 [Example 162, 2-(1,1-Dioxo-1λ^6-thiomorpholin-4-yl)-N-[5-(5-methanesulfonyl-1-{3-[4-(2-oxo-pyrrolidin-1-yl)-piperidin-1-yl]-propyl}-4,5,6,7-tetrahydro-1H-pyrazolo[4,3-c]pyridin-3-yl)-2-trifluoromethyl-benzyl]-acetamide]",380
8,"CN(C)c1ccc2c(n1)n(C1CCN(CC(O)Cn3nc(-c4ccc(Cl)c(CNC(=O)c5ccc(F)cc5)c4)c4c3CCN(S(C)(=O)=O)C4)CC1)c(=O)n2C (stereo not drawn) [Example 76, N-[2-Chloro-5-(1-{3-[4-(5-dimethylamino-1-methyl-2-oxo-1,2-dihydroimidazo[4,5-b]pyridin-3-yl)-piperidin-1-yl]-2-hydroxy-propyl}-5-methanesulfonyl-4,5,6,7-tetrahydro-1H-pyrazolo[4,3-c]pyridin-3-yl)-benzyl]-4-fluoro-benzamide]",10
9,"CS(=O)(=O)N1CCc2c(c(-c3ccc(Cl)c(CNC(=O)c4ccc(F)cc4)c3)nn2CC(O)CN2CCC(N3CCCC3=O)CC2)C1 (stereo not drawn) [Example 1, N-[2-Chloro-5-(1-{2-hydroxy-3-[4-(2-oxo-pyrrolidin-1-yl)-piperidin-1-yl]-propyl}-5-methanesulfonyl-4,5,6,7-tetrahydro-1H-pyrazolo[4,3-c]pyridin-3-yl)-benzyl]-4-fluoro-benzamide]",20
10,"CC(C)=CC(=O)NCc1cc(-c2nn(CC(O)CN3CCC(N4CCOCC4)CC3)c3c2CN(S(C)(=O)=O)CC3)ccc1C(F)(F)F (stereo not drawn) [Example 30, 3-Methyl-but-2-enoic acid 5-{1-[2-hydroxy-3-(4-morpholin-4-yl-piperidin-1-yl)-propyl]-5-methanesulfonyl-4,5,6,7-tetrahydro-1H-pyrazolo[4,3-c]pyridin-3-yl}-2-trifluoromethyl-benzylamide]",40
11,"CC(C)CC(=O)NCc1cc(-c2nn(CCCN3CCC(N4CCCC4=O)CC3)c3c2CN(S(C)(=O)=O)CC3)ccc1C(F)(F)F [Example 36, N-[5-(5-Methanesulfonyl-1-{3-[4-(2-oxo-pyrrolidin-1-yl)-piperidin-1-yl]-propyl}-4,5,6,7-tetrahydro-1H-pyrazolo[4,3-c]pyridin-3-yl)-2-trifluoromethyl-benzyl]-3-methyl-butyramide]",80
12,"CS(=O)(=O)N1CCc2c(c(-c3ccc(C(F)(F)F)c(CNC(=O)c4ccc5nccnc5c4)c3)nn2CC(O)CN2CCC(N3CCCC3=O)CC2)C1 (stereo not drawn) [Example 139, Quinoxaline-6-carboxylic acid 5-(1-{2-hydroxy-3-[4-(2-oxo-pyrrolidin-1-yl)-piperidin-1-yl]-propyl}-5-methanesulfonyl-4,5,6,7-tetrahydro-1H-pyrazolo[4,3-c]pyridin-3-yl)-2-trifluoromethyl-benzylamide]",490
13,"Cc1csc(C(=O)NCc2cc(-c3nn(CC(O)CN4CCC(N5CCCC5=O)CC4)c4c3CN(S(C)(=O)=O)CC4)ccc2C(F)(F)F)c1Cl (stereo not drawn) [Example 136, 3-Chloro-4-methyl-thiophene-2-carboxylic acid 5-(1-{2-hydroxy-3-[4-(2-oxo-pyrrolidin-1-yl)-piperidin-1-yl]-propyl}-5-methanesulfonyl-4,5,6,7-tetrahydro-1H-pyrazolo[4,3-c]pyridin-3-yl)-2-trifluoromethyl-benzylamide]",410
14,"CS(=O)(=O)N1CCc2c(c(-c3ccc(C(F)(F)F)c(CNCc4ccc(F)cc4)c3)nn2CCCN2CCC(C3CCCCC3)CC2)C1 [Example 296, (5-{1-[3-(4-Cyclohexyl-piperidin-1-yl)-propyl]-5-methanesulfonyl-4,5,6,7-tetrahydro-1H-pyrazolo[4,3-c]pyridin-3-yl}-2-trifluoromethyl-benzyl)-(4-fluoro-benzyl)-amine]",20
15,"CS(=O)(=O)N1CCc2c(c(-c3ccc(C(F)(F)F)c(CNC(=O)C4CC4)c3)nn2CC(O)CN2CCC(N3CCCC3=O)CC2)C1 (stereo not drawn) [Example 276, Cyclopropanecarboxylic acid 5-(1-{2-hydroxy-3-[4-(2-oxo-pyrrolidin-1-yl)-piperidin-1-yl]-propyl}-5-methanesulfonyl-4,5,6,7-tetrahydro-1H-pyrazolo[4,3-c]pyridin-3-yl)-2-trifluoromethyl-benzylamide]",90
16,"CC(C)CC(=O)NCc1cc(-c2nn(CC(O)CN3CCC(O)(c4ccc(Br)cc4)CC3)c3c2CN(S(C)(=O)=O)CC3)ccc1C(F)(F)F (stereo not drawn) [Example 287, N-[5-(1-{3-[4-(4-Bromo-phenyl)-4-hydroxy-piperidin-1-yl]-2-hydroxy-propyl}-5-methanesulfonyl-4,5,6,7-tetrahydro-1H-pyrazolo[4,3-c]pyridin-3-yl)-2-trifluoromethyl-benzyl]-3-methyl-butyramide]",60
17,"CSC(=O)NCc1cc(-c2nn(CCCN3CCC(N4CCCC4=O)CC3)c3c2CN(S(C)(=O)=O)CC3)ccc1C(F)(F)F [Example 46, [5-(5-Methanesulfonyl-1-{3-[4-(2-oxo-pyrrolidin-1-yl)-piperidin-1-yl]-propyl}-4,5,6,7-tetrahydro-1H-pyrazolo[4,3-c]pyridin-3-yl)-2-trifluoromethyl-benzyl]-thiocarbamic acid S-methyl ester]",410
18,"CS(=O)(=O)N1CCc2c(c(-c3ccc(C(F)(F)F)c(CNC(=O)Cc4ccccc4)c3)nn2CCCN2CCC(N3CCCC3=O)CC2)C1 [Example 37, N-[5-(5-Methanesulfonyl-1-{3-[4-(2-oxo-pyrrolidin-1-yl)-piperidin-1-yl]propyl}-4,5,6,7-tetrahydro-1H-pyrazolo[4,3-c]pyridin-3-yl)-2-trifluoromethyl-benzyl]-2-phenyl-acetamide]",480
19,"CS(=O)(=O)N1CCc2c(c(-c3ccc(C(F)(F)F)c(CNC(=O)c4ccc(Cl)s4)c3)nn2CC(O)CN2CCC(N3CCCC3=O)CC2)C1 (stereo not drawn) [Example 6, 5-Chloro-thiophene-2-carboxylic acid 5-(1-{2-hydroxy-3-[4-(2-oxo-pyrrolidin-1-yl)-piperidin-1-yl]-propyl}-5-methanesulfonyl-4,5,6,7-tetrahydro-1H-pyrazolo[4,3-c]pyridin-3-yl)-2-trifluoromethyl-benzylamide]",30
20,"CC(=O)c1ccc(C(=O)NCc2cc(-c3nn(CC(O)CN4CCC(N5CCCC5=O)CC4)c4c3CN(S(C)(=O)=O)CC4)ccc2C(F)(F)F)s1 (stereo not drawn) [Example 109, 5-Acetyl-thiophene-2-carboxylic acid 5-(1-{2-hydroxy-3-[4-(2-oxo-pyrrolidin-1-yl)-piperidin-1-yl]-propyl}-5-methanesulfonyl-4,5,6,7-tetrahydro-1H-pyrazolo[4,3-c]pyridin-3-yl)-2-trifluoromethyl-benzylamide]",80
